Reference: PubChem BioAssay (NCI)
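Results reflect a 48-hour exposure of cells in 96-well plates to compound at five concentrations. The concentration for 50% growth inhibition is given as GI50. TGI: total growth inhibition.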

Assays:
Assay in all cases: DTP human tumour cell line panel, 48 h
HCT-15 colon = tested on: HCT-15 colon
COLO 205 colon = tested on: COLO 205 colon
MDA-MB-231 breast = tested on: MDA-MB-231 breast
HOP-62 NSCLC = tested on: HOP-62 NSCLC
DU-145 prostate = tested on: DU-145 prostate
SR leukemia = tested on: SR leukemia
SF-295 CNS = tested on: SF-295 CNS
MDA-MB-435 = tested on: MDA-MB-435
CCRF-CEM leukemia = tested on: CCRF-CEM leukemia
OVCAR-8 ovarian = tested on: OVCAR-8 ovarian
U251 CNS = tested on: U251 CNS
RPMI-8226 leukemia = tested on: RPMI-8226 leukemia
SNB-19 CNS = tested on: SNB-19 CNS
OVCAR-5 ovarian = tested on: OVCAR-5 ovarian
HCT-116 colon = tested on: HCT-116 colon
KM12 colon = tested on: KM12 colon
A498 renal = tested on: A498 renal
BT-549 breast = tested on: BT-549 breast
HT29 colon = tested on: HT29 colon
MCF7 breast = tested on: MCF7 breast
EKVX NSCLC = tested on: EKVX NSCLC
OVCAR-3 ovarian = tested on: OVCAR-3 ovarian
K-562 leukemia = tested on: K-562 leukemia
HOP-92 NSCLC = tested on: HOP-92 NSCLC
UACC-257 melanoma = tested on: UACC-257 melanoma
NCI-H460 lung = tested on: NCI-H460 lung
NCI-H23 lung = tested on: NCI-H23 lung
SF-539 CNS = tested on: SF-539 CNS
SN12C renal = tested on: SN12C renal
HL-60(TB) leukemia = tested on: HL-60(TB) leukemia
T-47D breast = tested on: T-47D breast
IGROV1 ovarian = tested on: IGROV1 ovarian
786-0 renal = tested on: 786-0 renal
HCC-2998 colon = tested on: HCC-2998 colon
A549 NSCLC = tested on: A549 NSCLC
SK-MEL-2 melanoma = tested on: SK-MEL-2 melanoma
SW-620 colon = tested on: SW-620 colon
TK-10 renal = tested on: TK-10 renal
NCI/ADR-RES ovarian = tested on: NCI/ADR-RES ovarian
SK-OV-3 ovarian = tested on: SK-OV-3 ovarian
RXF 393 renal = tested on: RXF 393 renal
ACHN renal = tested on: ACHN renal
SNB-75 CNS = tested on: SNB-75 CNS
NCI-H226 lung = tested on: NCI-H226 lung
CAKI-1 renal = tested on: CAKI-1 renal
PC-3 prostate = tested on: PC-3 prostate
NCI-H522 lung = tested on: NCI-H522 lung
SF-268 CNS = tested on: SF-268 CNS
SK-MEL-28 melanoma = tested on: SK-MEL-28 melanoma
UO-31 renal = tested on: UO-31 renal
OVCAR-4 ovarian = tested on: OVCAR-4 ovarian
M14 melanoma = tested on: M14 melanoma
UACC-62 melanoma = tested on: UACC-62 melanoma
HS 578T breast = tested on: HS 578T breast
MALME-3M melanoma = tested on: MALME-3M melanoma
MOLT-4 leukemia = tested on: MOLT-4 leukemia
SK-MEL-5 melanoma = tested on: SK-MEL-5 melanoma
LOX IMVI melanoma = tested on: LOX IMVI melanoma

COc1cnc2c(c1)C(=O)c1c-2n(CCCNCC2CC2)c(=O)c2cc(F)ccc12
GI50 (HCT-15 colon): 402 nM
TGI (HCT-15 colon): 1810 nM
GI50 (COLO 205 colon): 570 nM
TGI (COLO 205 colon): 3480 nM
GI50 (MDA-MB-231 breast): 943 nM
TGI (MDA-MB-231 breast): 3440 nM
GI50 (HOP-62 NSCLC): 380 nM
TGI (HOP-62 NSCLC): 2150 nM
GI50 (DU-145 prostate): 475 nM
TGI (DU-145 prostate): 2440 nM
GI50 (SR leukemia): 117 nM
TGI (SR leukemia): 1790 nM
GI50 (SF-295 CNS): 295 nM
TGI (SF-295 CNS): 1680 nM
GI50 (MDA-MB-435): 1210 nM
TGI (MDA-MB-435): 3980 nM
GI50 (CCRF-CEM leukemia): 190 nM
TGI (CCRF-CEM leukemia): 4610 nM
GI50 (OVCAR-8 ovarian): 801 nM
TGI (OVCAR-8 ovarian): 3830 nM
GI50 (U251 CNS): 346 nM
TGI (U251 CNS): 2360 nM
GI50 (RPMI-8226 leukemia): 474 nM
TGI (RPMI-8226 leukemia): 2870 nM
GI50 (SNB-19 CNS): 453 nM
TGI (SNB-19 CNS): 3890 nM
GI50 (OVCAR-5 ovarian): 1020 nM
TGI (OVCAR-5 ovarian): 3070 nM
GI50 (HCT-116 colon): 284 nM
TGI (HCT-116 colon): 1400 nM
GI50 (KM12 colon): 1400 nM
TGI (KM12 colon): 5730 nM
GI50 (A498 renal): 969 nM
TGI (A498 renal): 4110 nM
GI50 (BT-549 breast): 1110 nM
TGI (BT-549 breast): 3880 nM
GI50 (HT29 colon): 495 nM
TGI (HT29 colon): 2100 nM
GI50 (MCF7 breast): 76.6 nM
TGI (MCF7 breast): 1350 nM
GI50 (EKVX NSCLC): 1510 nM
TGI (EKVX NSCLC): 5640 nM
GI50 (OVCAR-3 ovarian): 1110 nM
TGI (OVCAR-3 ovarian): 3800 nM
GI50 (K-562 leukemia): 229 nM
TGI (K-562 leukemia): 14500 nM
GI50 (HOP-92 NSCLC): 1750 nM
TGI (HOP-92 NSCLC): 7360 nM
GI50 (UACC-257 melanoma): 1780 nM
TGI (UACC-257 melanoma): 5240 nM
GI50 (NCI-H460 lung): 104 nM
TGI (NCI-H460 lung): 800 nM
GI50 (NCI-H23 lung): 577 nM
TGI (NCI-H23 lung): 1950 nM
GI50 (SF-539 CNS): 581 nM
TGI (SF-539 CNS): 1920 nM
GI50 (SN12C renal): 297 nM
TGI (SN12C renal): 2690 nM
GI50 (HL-60(TB) leukemia): 199 nM
TGI (HL-60(TB) leukemia): 1680 nM
GI50 (T-47D breast): 488 nM
TGI (T-47D breast): 3100 nM
GI50 (IGROV1 ovarian): 641 nM
TGI (IGROV1 ovarian): 4330 nM
GI50 (786-0 renal): 386 nM
TGI (786-0 renal): 1380 nM
GI50 (HCC-2998 colon): 715 nM
TGI (HCC-2998 colon): 2580 nM
GI50 (A549 NSCLC): 262 nM
TGI (A549 NSCLC): 1550 nM
GI50 (SK-MEL-2 melanoma): 3680 nM
TGI (SK-MEL-2 melanoma): 8400 nM
GI50 (SW-620 colon): 227 nM
TGI (SW-620 colon): 1860 nM
GI50 (TK-10 renal): 1560 nM
TGI (TK-10 renal): 4660 nM
GI50 (NCI/ADR-RES ovarian): 609 nM
TGI (NCI/ADR-RES ovarian): 3520 nM
GI50 (SK-OV-3 ovarian): 939 nM
TGI (SK-OV-3 ovarian): 2580 nM
GI50 (RXF 393 renal): 855 nM
TGI (RXF 393 renal): 2590 nM
GI50 (ACHN renal): 191 nM
TGI (ACHN renal): 717 nM
GI50 (SNB-75 CNS): 480 nM
TGI (SNB-75 CNS): 3300 nM
GI50 (NCI-H226 lung): 751 nM
TGI (NCI-H226 lung): 2020 nM
GI50 (CAKI-1 renal): 216 nM
TGI (CAKI-1 renal): 1830 nM
GI50 (PC-3 prostate): 760 nM
TGI (PC-3 prostate): 4930 nM
GI50 (NCI-H522 lung): 275 nM
TGI (NCI-H522 lung): 1740 nM
GI50 (SF-268 CNS): 1060 nM
TGI (SF-268 CNS): 8000 nM
GI50 (SK-MEL-28 melanoma): 1820 nM
TGI (SK-MEL-28 melanoma): 4570 nM
GI50 (UO-31 renal): 304 nM
TGI (UO-31 renal): 1590 nM
GI50 (OVCAR-4 ovarian): 1590 nM
TGI (OVCAR-4 ovarian): 3670 nM
GI50 (M14 melanoma): 736 nM
TGI (M14 melanoma): 3080 nM
GI50 (UACC-62 melanoma): 561 nM
TGI (UACC-62 melanoma): 2260 nM
GI50 (HS 578T breast): 2490 nM
TGI (HS 578T breast): 13900 nM
GI50 (MALME-3M melanoma): 1030 nM
TGI (MALME-3M melanoma): 3150 nM
GI50 (MOLT-4 leukemia): 77.1 nM
TGI (MOLT-4 leukemia): 8900 nM
GI50 (SK-MEL-5 melanoma): 1140 nM
TGI (SK-MEL-5 melanoma): 2650 nM
GI50 (LOX IMVI melanoma): 206 nM
TGI (LOX IMVI melanoma): 923 nM
